Data as given in patent publication US7683182B2, “Crystal forms of 2-(3-fluoro-4-hydroxyphenyl)-7-vinyl-1,3-benzoxazol-5-ol” (Wyeth LLC, priority 2005, dated 2010).

Assays:
Type in all cases: physicochemical
[1] = Stability, separate study of micronized and non-micronized anhydrate (XRPD)
[2] = Dynamic vapor sorption (DVS), hygroscopicity; details: for DVS gain: 0-90% RH; for Hygroscopicity (from DVS weight gain): DVS data of Table 2
Excerpt: Dynamic Vapor Sorption (Allentown, Pa.) was used to measure the hygroscopicity of the anhydrate and monohydrate of the invention (see FIGS. 6 and 7). The step conditions were three hours each at 0%, 30%, 52.5%, 75% and 90% RH, two full cycles.

[3] = Stability studies, long term (XRPD, TGA, HPLC); details: non-micronized, three months
Procedure: Non-micronized samples of monohydrate and anhydrate were stored at 40° C./75% RH for three months. The monohydrate was also stored at 40° C. without humidity control. During the three months, the samples were checked after two weeks, one month, two months, and three months.

[4] = Water solubility of the crystal forms; details: Table 2 data
[5] = Stability studies, short term (XRPD)
[6] = Stability studies, medium term (XRPD and TGA)
Procedure: Samples of monohydrate were stored at room temperature, 56° C., and 70° C. for one week. At room temperature, humidity was maintained at 0% RH. Humidity was not controlled for the higher temperatures.
The samples were analyzed by XRPD and TGA.

[7] = 40° C. without humidity control

C=Cc1cc(O)cc2nc(-c3ccc(O)c(F)c3)oc12 [Anhydrate, 2-(3-fluoro-4-hydroxyphenyl)-7-vinyl-1,3-benzoxazol-5-ol]
Transformation to the monohydrate (XRPD) ([1]; micronized, 25° C./60% RH, three months): did not transform to the monohydrate | Transformation to the monohydrate (XRPD) ([1]; micronized, 40° C./75% RH, one month): partially transform to the monohydrate | Transformation to the monohydrate (XRPD) ([1]; non-micronized, 40° C./75% RH): did not show any obvious transformation | DVS gain [2]: 0.2% gain (0-90% RH) | Hygroscopicity (from DVS weight gain) [2]: largely non-hygroscopic | Chemical stability (HPLC) ([3]; 40° C./75% RH): chemically stable | Transformation of crystal form (XRPD and TGA) ([3]; 40° C./75% RH): did not transform

C=Cc1cc(O)cc2nc(-c3ccc(O)c(F)c3)oc12 [Monohydrate, 2-(3-fluoro-4-hydroxyphenyl)-7-vinyl-1,3-benzoxazol-5-ol]
Water solubility compared between the two forms [4]: significantly lower solubility than the anhydrate | Stability of crystal form (XRPD) ([5]; 70° C. for one hour): stable | Stability of crystal form (XRPD) ([5]; 90° C. after one half hour): partially dehydrated | Stability of crystal form (XRPD) ([5]; 90° C. after one hour): completely dehydrated | Dehydration on storage (XRPD and TGA) ([6]; 56° C., humidity not controlled, one week): no obvious dehydration | Dehydration on storage (XRPD and TGA) ([6]; 70° C., humidity not controlled, after 1 day): no obvious hydration | Dehydration on storage (XRPD and TGA) ([6]; 70° C., humidity not controlled, after 4 days): partially dehydrated | Dehydration on storage (XRPD and TGA) ([6]; 70° C., humidity not controlled, after 7 days): mostly dehydrated | Dehydration on storage (XRPD and TGA) ([6]; room temperature, 0% RH, one week): no obvious dehydration | DVS gain [2]: 0.1% gain (0-90% RH) | Hygroscopicity (from DVS weight gain) [2]: largely non-hygroscopic | Chemical stability (HPLC) [3, 7]: chemically stable | Transformation of crystal form (XRPD and TGA) [3, 7]: did not transform | Chemical stability (HPLC) ([3]; 40° C./75% RH): chemically stable | Transformation of crystal form (XRPD and TGA) ([3]; 40° C./75% RH): did not transform
